Data as given in patent US11078228B2, “Ectonucleotidase inhibitors and methods of use thereof” (Calithera Biosciences, Inc., priority 2018, dated 2021).

What follows are compounds tested against recombinant CD73 (Homo sapiens (Human), UniProt P21589) (assay: Assay 2: Inhibition of the CD73 enzyme in vitro (0.05 nM CD73, 1 hour 37° C., Malachite Green)). Conditions: 0.05 nM CD73, 50 μM AMP, 1 hour at 37° C.
Chain of recombinant CD73 (P21589 27-547): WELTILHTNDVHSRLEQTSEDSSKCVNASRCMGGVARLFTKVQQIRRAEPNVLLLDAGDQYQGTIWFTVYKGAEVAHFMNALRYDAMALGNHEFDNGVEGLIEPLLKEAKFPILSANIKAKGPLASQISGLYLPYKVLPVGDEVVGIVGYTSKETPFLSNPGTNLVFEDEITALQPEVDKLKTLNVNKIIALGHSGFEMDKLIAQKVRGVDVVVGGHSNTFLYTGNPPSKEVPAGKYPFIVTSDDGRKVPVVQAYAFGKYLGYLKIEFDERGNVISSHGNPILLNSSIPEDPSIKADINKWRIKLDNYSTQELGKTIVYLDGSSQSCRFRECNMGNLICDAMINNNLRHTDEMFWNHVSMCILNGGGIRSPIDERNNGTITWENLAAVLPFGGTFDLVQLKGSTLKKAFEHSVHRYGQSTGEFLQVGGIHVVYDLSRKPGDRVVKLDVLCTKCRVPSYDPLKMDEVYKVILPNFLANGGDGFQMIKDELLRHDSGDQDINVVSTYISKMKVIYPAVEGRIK
Format: biochemical
Procedure: For measurements of soluble CD73 enzyme activity, recombinant CD73 was obtained from R&D Systems, Cat. No. 5795-EN-010. […] Reactions were allowed to proceed for 1 hour at 37° C. before the addition of 100 μL Malachite Green (Cell Signaling Technology, Cat. No. 12776). After 5 minutes at room temperature, absorbance at 630 nm was determined on a microplate spectrophotometer. The concentration of inorganic phosphate was determined using a phosphate standard curve.
`C#C[C@@]1(O)[C@@H](COC(Cc2nc3ccccc3s2)(C(=O)O)C(=O)O)O[C@@H](n2cnc3c(NCc4ccc(F)cc4)nc(Cl)nc32)[C@@H]1O` [Example 112, 2-(benzo[d]thiazol-2-ylmethyl)-2-(((2R,3S,4R,5R)-5-(2-chloro-6-((4-fluorobenzyl)amino)-9H-purin-9-yl)-3-ethynyl-3,4-dihydroxytetrahydrofuran-2-yl)methoxy)malonic acid] showed an IC50 of 1360 nM. In the case of `C#C[C@@]1(O)[C@@H](COC(Cc2ccccc2)(C(=O)O)C(=O)O)O[C@@H](n2cnc3c(NCc4ccccc4F)nc(Cl)nc32)[C@@H]1O` [Example 67, 2-benzyl-2-(((2R,3S,4R,5R)-5-(2-chloro-6-((2-fluorobenzyl)amino)-9H-purin-9-yl)-3-ethynyl-3,4-dihydroxytetrahydrofuran-2-yl)methoxy)malonic acid], the IC50 is reported as 0.8 nM. `C#C[C@@]1(O)[C@@H](COC(Cc2ccccc2)(C(=O)O)C(=O)O)O[C@@H](n2cnc3c(N4CC(C)(O)C4)nc(Cl)nc32)[C@@H]1O` [Example 47, 2-benzyl-2-(((2R,3S,4R,5R)-5-(2-chloro-6-(3-hydroxy-3-methylazetidin-1-yl)-9H-purin-9-yl)-3-ethynyl-3,4-dihydroxytetrahydrofuran-2-yl)methoxy)malonic acid] showed an IC50 of 2 nM. In the case of `C#C[C@@]1(O)[C@@H](COC(Cc2ccc(-c3cccn(COC)c3=O)cc2)(C(=O)O)C(=O)O)O[C@@H](n2cnc3c(N)nc(Cl)nc32)[C@@H]1O` [Compound 11, 2-(((2R,3S,4R,5R)-5-(6-amino-2-chloro-9H-purin-9-yl)-3-ethynyl-3,4-dihydroxytetrahydrofuran-2-yl)methoxy)-2-(4-(1-(methoxymethyl)-2-oxo-1,2-dihydropyridin-3-yl)benzyl)malonic acid], the IC50 is reported as 0.06 nM. For `C#C[C@@]1(O)[C@@H](COC(Cc2ccccc2)(C(=O)O)C(=O)O)O[C@@H](n2cnc3c(NCc4cccnc4)nc(Cl)nc32)[C@@H]1O` [Example 84, 2-benzyl-2-(((2R,3S,4R,5R)-5-(2-chloro-6-((pyridin-3-ylmethyl)amino)-9H-purin-9-yl)-3-ethynyl-3,4-dihydroxytetrahydrofuran-2-yl)methoxy)malonic acid], the IC50 was 3 nM. With `C#C[C@@]1(O)[C@@H](COC(Cc2ccc(-c3ccccc3)c(C(=O)O)c2)(C(=O)O)C(=O)O)O[C@@H](n2cnc3c(N)nc(Cl)nc32)[C@@H]1O` [Example 13, 2-(((2R,3S,4R,5R)-5-(6-amino-2-chloro-9H-purin-9-yl)-3-ethynyl-3,4-dihydroxytetrahydrofuran-2-yl)methoxy)-2-((2-carboxy-[1,1′-biphenyl]-4-yl)methyl)malonic acid] the IC50 was 0.3 nM. With `C#C[C@@]1(O)[C@@H](CO[C@H](Cc2ccc(N3CCCNC3=O)cc2)C(=O)O)O[C@@H](n2cnc3c(N)nc(Cl)nc32)[C@@H]1O` (single isomer, unassigned) [Example 166] the IC50 was 145 nM. `C#C[C@@]1(O)[C@@H](COC(Cc2ccc(-c3cccn(CCOC)c3=O)cc2)(C(=O)O)C(=O)O)O[C@@H](n2cnc3c(N)nc(Cl)nc32)[C@@H]1O` [Example 146, 2-(((2R,3S,4R,5R)-5-(6-amino-2-chloro-9H-purin-9-yl)-3-ethynyl-3,4-dihydroxytetrahydrofuran-2-yl)methoxy)-2-(4-(1-(2-methoxyethyl)-2-oxo-1,2-dihydropyridin-3-yl)benzyl)malonic acid] was tested, and the IC50 was 0.41 nM. `C#C[C@@]1(O)[C@@H](COC(Cc2ccc(-c3cccn(CCC)c3=O)cc2)(C(=O)O)C(=O)O)O[C@@H](n2cnc3c(N)nc(Cl)nc32)[C@@H]1O` [Example 19, 2-(((2R,3S,4R,5R)-5-(6-amino-2-chloro-9H-purin-9-yl)-3-ethynyl-3,4-dihydroxytetrahydrofuran-2-yl)methoxy)-2-(4-(2-oxo-1-propy-1,2-dihydropyridin-3-yl)benzyl)malonic acid] gave an IC50 of 0.2 nM. For `C#C[C@@]1(O)[C@@H](COC(Cc2ccc(-c3cccnc3OC)cc2)(C(=O)O)C(=O)O)O[C@@H](n2cnc3c(N)nc(Cl)nc32)[C@@H]1O` [Example 22, 2-(((2R,3S,4R,5R)-5-(6-amino-2-chloro-9H-purin-9-yl)-3-ethynyl-3,4-dihydroxytetrahydrofuran-2-yl)methoxy)-2-(4-(2-methoxypyridin-3-yl)benzyl)malonic acid], the IC50 was 0.3 nM. `C#C[C@@]1(O)[C@@H](COC(Cc2ccccc2)(C(=O)O)C(=O)O)O[C@@H](n2cnc3c(NCC4(O)CC4)nc(Cl)nc32)[C@@H]1O` [Example 44, 2-benzyl-2-(((2R,3S,4R,5R)-5-(2-chloro-6-(((1-hydroxycyclopropyl)-methyl)amino)-9H-purin-9-yl)-3-ethynyl-3,4-dihydroxytetrahydrofuran-2-yl)methoxy)malonic acid] showed an IC50 of 62 nM. Work on `C#C[C@@]1(O)[C@@H](COC(Cc2ccccc2)(C(=O)O)C(=O)O)O[C@@H](n2cnc3c(N4CC[C@H](O)C4)nc(Cl)nc32)[C@@H]1O` [Example 65, 2-benzyl-2-(((2R,3S,4R,5R)-5-(2-chloro-6-((S)-3-hydroxypyrrolidin-1-yl)-9H-purin-9-yl)-3-ethynyl-3,4-dihydroxytetrahydrofuran-2-yl)methoxy)malonic acid] yielded an IC50 of 1 nM. `C#C[C@@]1(O)[C@@H](COC(Cc2ccccc2)(C(=O)O)C(=O)O)O[C@@H](n2cnc3ccc(C(F)(F)F)nc32)[C@@H]1O` [Example 125, 2-benzyl-2-(((2R,3S,4R,5R)-3-ethynyl-3,4-dihydroxy-5-(5-(trifluoromethyl)-3H-imidazo[4,5-b]pyridin-3-yl)tetrahydrofuran-2-yl)methoxy)malonic acid] showed an IC50 of 235 nM. For `C#C[C@@]1(O)[C@@H](COC(Cc2ccccc2)(C(=O)O)C(=O)O)O[C@@H](n2cnc3c(N4CCC[C@H]4CO)nc(Cl)nc32)[C@@H]1O` [Example 104, 2-benzyl-2-(((2R,3S,4R,5R)-5-(2-chloro-6-((S)-2-(hydroxymethyl)-pyrrolidin-1-yl)-9H-purin-9-yl)-3-ethynyl-3,4-dihydroxytetrahydrofuran-2-yl)methoxy)malonic acid], the IC50 was 2 nM. In the case of `C#C[C@@]1(O)[C@@H](COC(CC)(C(=O)O)C(=O)O)O[C@@H](n2cnc3c(N)nc(Cl)nc32)[C@@H]1O` [Example 16, 2-(((2R,3S,4R,5R)-5-(6-amino-2-chloro-9H-purin-9-yl)-3-ethynyl-3,4-dihydroxytetrahydrofuran-2-yl)methoxy)-2-ethylmalonic acid], the IC50 is reported as 24 nM. For `C#C[C@@]1(O)[C@@H](COC(Cc2ccccc2)(C(=O)O)C(=O)O)O[C@@H](n2cnc3c(N[C@@H](C)CC)nc(Cl)nc32)[C@@H]1O` [Example 74, 2-benzyl-2-(((2R,3S,4R,5R)-5-(6-((S)-sec-butylamino)-2-chloro-9H-purin-9-yl)-3-ethynyl-3,4-dihydroxytetrahydrofuran-2-yl)methoxy)malonic acid], the IC50 was 2 nM. In the case of `C#C[C@@]1(O)[C@@H](COC(Cc2ccccc2)(C(=O)O)C(=O)O)O[C@@H](n2cnc3c(NC)nc(Cl)nc32)[C@@H]1O` [Example 71, 2-benzyl-2-(((2R,3S,4R,5R)-5-(2-chloro-6-(methylamino)-9H-purin-9-yl)-3-ethynyl-3,4-dihydroxytetrahydrofuran-2-yl)methoxy)malonic acid], the IC50 is reported as 6 nM. `C#C[C@@]1(O)[C@@H](COC(Cc2ccc(N3CCCNC3=O)cc2)(C(=O)O)C(=O)O)O[C@@H](n2cnc3c(N)cc(Cl)nc32)[C@@H]1O` [Example 157, 2-(((2R,3S,4R,5R)-5-(7-amino-5-chloro-3H-imidazo[4,5-b]pyridin-3-yl)-3-ethynyl-3,4-dihydroxytetrahydrofuran-2-yl)methoxy)-2-(4-(2-oxotetrahydropyrimidin-1(2H)-yl)benzyl)malonic acid] showed an IC50 of 0.37 nM. `C#C[C@@]1(O)[C@@H](COC(Cc2ccc(N3CCCNC3=O)cc2)(C(=O)O)C(=O)O)O[C@@H](n2cnc3c(NC(C)C)nc(Cl)nc32)[C@@H]1O` [Example 140, 2-(((2R,3S,4R,5R)-5-(2-chloro-6-(isopropylamino)-9H-purin-9-yl)-3-ethynyl-3,4-dihydroxytetrahydrofuran-2-yl)methoxy)-2-(4-(2-oxotetrahydropyrimidin-1(2H)-yl)benzyl)malonic acid] showed an IC50 of 0.29 nM. Work on `C#C[C@@]1(O)[C@@H](COC(Cc2ccc(-c3ccc[nH]c3=O)cc2)(C(=O)O)C(=O)O)O[C@@H](n2cnc3c(N)nc(Cl)nc32)[C@@H]1O` [Example 12, 2-(((2R,3S,4R,5R)-5-(6-amino-2-chloro-9H-purin-9-yl)-3-ethynyl-3,4-dihydroxytetrahydrofuran-2-yl)methoxy)-2-(4-(2-oxo-1,2-dihydropyridin-3-yl)benzyl)malonic acid] yielded an IC50 of 0.1 nM. `C#C[C@@]1(O)[C@@H](COC(Cc2ccccc2)(C(=O)O)C(=O)O)O[C@@H](n2cnc3c(NCC(C)(C)O)nc(Cl)nc32)[C@@H]1O` [Example 94, 2-benzyl-2-(((2R,3S,4R,5R)-5-(2-chloro-6-((2-hydroxy-2-methylpropyl)amino)-9H-purin-9-yl)-3-ethynyl-3,4-dihydroxytetrahydrofuran-2-yl)methoxy)malonic acid] was tested, and the IC50 was 5 nM. With `C#C[C@@]1(O)[C@@H](COC(Cc2ccc(-c3ccccc3)cc2)(C(=O)O)C(=O)O)O[C@@H](n2cnc3c(N)nc(Cl)nc32)[C@@H]1O` [Example 53, 2-([1,1′-biphenyl]-4-ylmethyl)-2-(((2R,3S,4R,5R)-5-(6-amino-2-chloro-9H-purin-9-yl)-3-ethynyl-3,4-dihydroxytetrahydrofuran-2-yl)methoxy)malonic acid] the IC50 was 0.3 nM. `C#C[C@@]1(O)[C@@H](COC(Cc2cscn2)(C(=O)O)C(=O)O)O[C@@H](n2cnc3c(N)nc(Cl)nc32)[C@@H]1O` [Example 126, 2-(((2R,3S,4R,5R)-5-(6-amino-2-chloro-9H-purin-9-yl)-3-ethynyl-3,4-dihydroxytetrahydrofuran-2-yl)methoxy)-2-(thiazol-4-ylmethyl)malonic acid] showed an IC50 of 9 nM.
